Measurements reported in ChEMBL document CHEMBL5512658, “Development of benzimidazole-based compounds as novel capsid assembly modulators for the treatment of HBV infection” (Eur J Med Chem, 2024).
Activity calls are given as the source filed them. No cut-off for these calls is given here.

Assays:
[1] = tested on: Hepatitis B virus; assay: Antiviral activity against HBV infected in human HepAD38 cells assessed as inhibition of viral replication; format: functional, organism-based
[2] = tested on: HepG2; assay: Cytotoxicity against human HepG2 cells measured after 3 days by resazurin staining based analysis; format: functional; conditions: HepG2, 72 h, time 3 day
[3] = tested on: Hepatitis B virus; assay: Antiviral activity against HBV infected in human HePAD38 cells assessed as reduction in intracellular core HBV DNA level media replaced for every 2 to 3 days incubated for 7 days by Western blot analysis; format: functional, organism-based
[4] = target: T1, Core antigen (Hepatitis B virus, UniProt Q03732); assay: Inhibition of Hepatitis B virus core protein expressed in HBC cells derived from HEK293T cells assessed as reduction in HBcAg level incubated for 6 hrs by Nano-glo luciferase assay; format: cell-based
[5] = tested on: Hepatitis B virus core protein; assay: Selectivity index, ratio of CC50 for human HepG2 cells to IC50 for Hepatitis B virus core protein expressed in HEK293T cells; format: toxicity, cell-based; conditions: read-out: Ratio CC50/IC50
[6] = target: T1, Core antigen; assay: Inhibition of Hepatitis B virus core protein expressed in HBC cells derived from HEK293T cells assessed as reduction in HBcAg level […] incubated for 6 hrs by Nano-glo luciferase assay; format: cell-based
[7] = tested on: Hepatitis B virus; assay: Antiviral activity against HBV infected in human HePAD38 cells assessed as inhibition of HBV capsid assembly by measuring secretion of particles containing HBV DNA at 5 uM incubated for 7 days by Southern blot analysis; format: functional, organism-based; conditions: time 7.0 day
[8] = tested on: Hepatitis B virus; assay: Antiviral activity against HBV infected in human HePAD38 cells assessed as reduction HBV capsid level at 5 uM media replaced for every 2 to 3 days incubated for 7 days by Western blot analysis; format: functional, organism-based; conditions: time 7.0 day

T1 sequence (Q03732 whole entry): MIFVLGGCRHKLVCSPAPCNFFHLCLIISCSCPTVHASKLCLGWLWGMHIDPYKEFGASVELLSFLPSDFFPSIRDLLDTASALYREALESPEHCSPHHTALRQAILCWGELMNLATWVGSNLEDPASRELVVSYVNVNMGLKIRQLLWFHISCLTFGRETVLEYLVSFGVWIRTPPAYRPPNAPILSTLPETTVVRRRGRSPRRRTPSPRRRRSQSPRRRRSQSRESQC

Compound	EC50 [1] [µM]	CC50 [2] [µM]	EC50 [3] [µM]	IC50 ([4]; read-out: IC50) [µM]	selectivity ratio [5]	IC50 ([4]; hbc)	IC50 [6]	Activity [7]	Activity [8]
O=C(NCc1cc(F)c(F)c(F)c1)c1ccc(F)c(S(=O)(=O)N2CCC(O)CC2)c1	0.29								
COc1ccc(Cc2nc3ccccc3n2CC(O)COc2ccccc2)cc1 (stereo not given)		12.3	0.07	1.99	6.18				
Fc1cc(F)cc(Sc2nc3ccccc3[nH]2)c1		> 100		19.7	> 5.07				
Fc1cccc(Sc2nc3ccccc3[nH]2)c1		> 100				Not Active			
Clc1cccc(Sc2nc3ccccc3[nH]2)c1		> 100		26.5	> 3.77				
OCCn1c(Sc2ccc(Cl)cc2)nc2ccccc21		50.7	6.37	3.6	14.1				
COc1ccc(Cc2nc3ccccc3n2C(C)C)cc1		37.1		41.5	0.96				
COc1ccc(Cc2nc3ccccc3n2CCCNc2ccccc2)cc1		12.3		1.26	9.73				
OCCn1c(Sc2ccc(F)cc2)nc2ccccc21		84.7		22.2	3.82				
COc1ccc(Cc2nc3ccccc3n2C2CCC2)cc1		89.6		27.2	3.29				
COc1ccc(Sc2nc3ccccc3n2C(C)=O)cc1		> 100		12	> 8.37				
COc1ccc(-c2nc3ccccc3[nH]2)cc1		10.3					Not Active		
COc1ccc(Cc2nc3ccccc3n2C(C)=O)cc1		42.8	16.1	1.57	27.2			Active	
COc1ccc(Cc2nc3ccccc3s2)cc1		32.6					Not Active		
OCCn1c(Sc2ccc(Br)cc2)nc2ccccc21		71.8	1.99	2.01	35.7				
COc1ccc(Cc2nc3ccccc3n2CCCCc2ccccc2)cc1		44.6		27.7	1.61				
COc1ccc(Cc2nc3ccccc3n2CC(=O)COc2ccccc2)cc1		10.2		3.67	2.79				
Brc1ccc(Sc2nc3ccccc3[nH]2)cc1		13.9		1.8	7.73				
CCCCn1c(Cc2ccc(OC)cc2)nc2ccccc21		> 100		6.48	> 15.4				
COc1ccc(CCCc2nc3ccccc3[nH]2)cc1		47		22.8	2.06			Active	Active
CCc1ccc(Sc2nc3ccccc3[nH]2)cc1		17.2		3.93	4.37				

Compound	EC50 [1] [µM]	CC50 [2] [µM]	EC50 [3] [µM]	IC50 ([4]; read-out: IC50) [µM]	selectivity ratio [5]	IC50 ([4]; hbc)	IC50 [6]	Activity [7]	Activity [8]
COc1ccc(Cc2nc3ccccc3n2C)cc1		22.1		4.85	4.55			Active	Active
COc1ccc(CCc2nc3ccccc3[nH]2)cc1		> 100		34.3	> 2.91			Active	Active
COc1ccc(C2(c3nc4ccccc4[nH]3)CC2)cc1		> 100		21.8	> 4.58				
COc1ccc(Cc2nc3ccccc3n2CCCCCO)cc1		29.5	15.9	0.95	31.1			Active	Active
COc1ccc(Cc2nc3ccccc3n2CC(O)CO)cc1 (stereo not given)		> 100		3.07	> 32.6				
COc1ccc(S(=O)(=O)c2nc3ccccc3[nH]2)cc1		65.2		26.9	2.42				
Cc1ccc(Sc2nc3ccccc3[nH]2)cc1		61		6.81	8.96				
COc1ccc(Oc2nc3ccccc3[nH]2)cc1		> 100				Not Active			
COc1ccc(Cc2nc3ccccc3n2C[C@H](O)COc2ccccc2)cc1		15.2		2.46	6.18				
CCn1c(Cc2ccc(OC)cc2)nc2ccccc21		29.5		4.51	6.55				
COc1ccc(Sc2nc3ccccc3[nH]2)cc1		8.13	2	1.08	7.53			Active	Active
CCCn1c(Cc2ccc(OC)cc2)nc2ccccc21		> 100		11.4	> 8.79				
COc1ccc(Sc2nc3ccccc3n2C)cc1		25.8		5.68	4.54				
COc1ccc(Cc2nc3ccccc3o2)cc1		> 100		36.3	> 2.76				
CCc1ccc(Sc2nc3ccccc3n2CCO)cc1		82.8		4.5	18.4				
COc1ccc(Cc2nc3ccccc3n2CCCBr)cc1		26.2		7.85	3.34				
OCCn1c(Sc2cccc(F)c2)nc2ccccc21		> 100		49.3	> 2.03				
COc1ccc(Cc2nc3ccccc3n2CCCOc2ccccc2)cc1		12.7		1.25	10.2				
COc1ccc(Sc2nc3ccccc3n2CCCCCO)cc1		> 100	5.7	0.6	> 167			Active	Active
COc1ccc(Cc2nc3ccccc3n2CCCOc2cccnc2)cc1		13.4		1.21	11.1				
OCCn1c(Sc2ccc(Cl)c(Cl)c2)nc2ccccc21		> 100		7	> 14.3				

Compound	EC50 [1] [µM]	CC50 [2] [µM]	EC50 [3] [µM]	IC50 ([4]; read-out: IC50) [µM]	selectivity ratio [5]	IC50 ([4]; hbc)	IC50 [6]	Activity [7]	Activity [8]
COc1ccc(Cc2nc3ccccc3n2C[C@@H](O)COc2ccccc2)cc1		9.72		2.41	4.03				
COc1ccc(Cc2nc3ccccc3n2CCO)cc1		> 100		2.37	> 42.2			Active	Active
CCCCCn1c(Cc2ccc(OC)cc2)nc2ccccc21		46.5		7.63	6.1				
COc1ccc(Cc2nc3ccccc3n2CCCCCCO)cc1		30.3		3.36	9.02				Active
COC(=O)C1=C(C)NC(c2ncc(F)cc2F)=N[C@H]1c1ccc(F)cc1Cl	0.0243								
Clc1ccc(Sc2nc3ccccc3[nH]2)cc1		13.7		2.94	4.65				
COCC(O)Cn1c(Cc2ccc(OC)cc2)nc2ccccc21 (stereo not given)		> 100		3.32	> 30.1				
COCCCn1c(Cc2ccc(OC)cc2)nc2ccccc21		> 100		9.65	> 10.4			Active	Active
COc1ccc(Cc2nc3ccccc3n2CCCOC(C)=O)cc1		> 100		14	> 7.15			Active	
CCOC(=O)n1c(Cc2ccc(OC)cc2)nc2ccccc21		44.2		2.18	20.3			Active	Active
Clc1ccc(Sc2nc3ccccc3[nH]2)cc1Cl		> 100		11.1	> 9.03				
COc1ccc(Cc2nc3ccccc3n2CCCCO)cc1		34.4		2.45	14.1			Active	Active
COc1ccc(Nc2nc3ccccc3[nH]2)cc1		65.6		6.13	10.7				
COc1ccc([S+]([O-])c2nc3ccccc3[nH]2)cc1 (stereo not given)		34		36.5	0.93				
CCOC(=O)Cn1c(Cc2ccc(OC)cc2)nc2ccccc21		22.1		9.41	2.35				
COc1ccc(Cc2nc3ccccc3n2CCCO)cc1		> 100		4.17	> 24			Active	
COc1ccc(Cc2nc3ccccc3[nH]2)cc1		> 100	11.9	2.05	> 48.8			Active	
COCC(Cn1c(Cc2ccc(OC)cc2)nc2ccccc21)OC (stereo not given)		> 100		19.8	> 5.06				
COc1ccc(Cc2nc3ccccc3n2-c2ccccc2)cc1		14.2		52.9					
Fc1ccc(Sc2nc3ccccc3[nH]2)cc1		13.3		12	1.11				
